Test system: Plasmodium berghei
Assay: Luciferase/luciferin-expressing antifolate-resistant parasites were used to infect a culture of HepG2 cells that were pre-incubated with compounds. Infected hepatocytes emit light due to the luciferase reaction. Assay results are presented as the percent inhibition of light emission compared to control. […]
Assay type: functional
Settings: sporozoite; for IC90: read-out: LUCIFERASE INFECTION ASSAY - IC90

Cc1cc(C)nc(-n2nc(C)cc2NC(=O)CN2CCc3ccccc3C2)n1
IC50 (HEPG2TOX_HILL_SLOPE 7.28, HEPG2TOX_R_SQUARED 0.662, read-out: LUCIFERASE INFECTION ASSAY - IC50): > 10 µM | IC90: > 10 µM

OC(CNCc1ccc(F)cc1)(c1ccccc1)c1ccc(F)cc1 (configuration not stated)
IC50 (HEPG2TOX_HILL_SLOPE 7.21, HEPG2TOX_R_SQUARED 0.703, read-out: LUCIFERASE INFECTION ASSAY - IC50): > 9.72 µM | IC90: > 9.72 µM

O=C(Nc1nc(-c2ccccn2)cs1)C1CC1c1ccccc1F (configuration not stated)
IC50 (HEPG2TOX_HILL_SLOPE 7.24, HEPG2TOX_R_SQUARED 0.0806, PBLUC_HILL_SLOPE 12.4, PBLUC_R_SQUARED 0.768, read-out: LUCIFERASE INFECTION ASSAY - IC50): 2.99 µM | IC90: 3.57 µM

CCCNC(=O)c1c(NC(=O)c2ccc(F)cc2F)nc2ccccn12
IC50 (HEPG2TOX_HILL_SLOPE 7.34, HEPG2TOX_R_SQUARED 0.716, PBLUC_HILL_SLOPE 2.53, PBLUC_R_SQUARED 0.731, read-out: LUCIFERASE INFECTION ASSAY - IC50): 3.66 µM | IC90: 8.71 µM

Cc1ccc(NC(=O)/C=C/c2c(C)nn(CC(C)C)c2Cl)cc1
IC50 (HEPG2TOX_HILL_SLOPE 7.42, HEPG2TOX_R_SQUARED 0.403, read-out: LUCIFERASE INFECTION ASSAY - IC50): > 10 µM | IC90: > 10 µM

CCOC(=O)c1sc2nc(CSc3ccccc3)nc(NCC(O)CN(C)C)c2c1C (configuration not stated)
IC50 (HEPG2TOX_HILL_SLOPE 7.33, HEPG2TOX_R_SQUARED 0.474, PBLUC_HILL_SLOPE 9.13, PBLUC_R_SQUARED 0.72, read-out: LUCIFERASE INFECTION ASSAY - IC50): 9.05 µM | IC90: > 10 µM

CC(=O)N(/N=C/c1ccc(F)cc1)C1=NN(C(C)=O)C(c2ccc(F)cc2)S1 (configuration not stated)
IC50 (HEPG2TOX_HILL_SLOPE 7.43, HEPG2TOX_R_SQUARED 0.382, read-out: LUCIFERASE INFECTION ASSAY - IC50): > 8.2 µM | IC90: > 8.2 µM

Cc1ccc(CSc2ccc([N+](=O)[O-])c3nonc23)cc1
IC50 (HEPG2TOX_HILL_SLOPE 7.3, HEPG2TOX_R_SQUARED 0.39, read-out: LUCIFERASE INFECTION ASSAY - IC50): > 11 µM | IC90: > 11 µM

COc1cc(C)c(C(c2ccc(N(C)C)cc2)c2ccc(N(C)C)cc2)cc1C
IC50 (HEPG2TOX_HILL_SLOPE 7.41, HEPG2TOX_R_SQUARED 0.305, PBLUC_HILL_SLOPE 5.23, PBLUC_R_SQUARED 0.705, read-out: LUCIFERASE INFECTION ASSAY - IC50): 4.24 µM | IC90: 6.45 µM

COc1cc(Br)c(/C=C2/C(=O)Nc3cc(Cl)ccc32)cc1O
IC50 (HEPG2TOX_HILL_SLOPE 7.49, HEPG2TOX_R_SQUARED 0.517, PBLUC_HILL_SLOPE 14.1, PBLUC_R_SQUARED 0.1, read-out: LUCIFERASE INFECTION ASSAY - IC50): 9.39 µM | IC90: > 10 µM

O=C1N=C(Nc2cccnc2)S/C1=C/c1ccc2ncccc2c1
IC50 (HEPG2TOX_HILL_SLOPE 7.45, HEPG2TOX_R_SQUARED 0.476, PBLUC_HILL_SLOPE 2.82, PBLUC_R_SQUARED 0.798, read-out: LUCIFERASE INFECTION ASSAY - IC50): 4.36 µM | IC90: 9.5 µM

O=C(Nc1ccc(Cl)cc1)Nc1ccccc1SCc1ncc(C(F)(F)F)cc1Cl
IC50 (HEPG2TOX_HILL_SLOPE 7.43, HEPG2TOX_R_SQUARED 0.87, PBLUC_HILL_SLOPE 2.47, PBLUC_R_SQUARED 0.266, read-out: LUCIFERASE INFECTION ASSAY - IC50): 4.63 µM | IC90: > 6.99 µM

COc1cc2c(cc1OC)C(c1cccs1)N(Cc1cc(-c3ccco3)on1)CC2 (configuration not stated)
IC50 (HEPG2TOX_HILL_SLOPE 7.23, HEPG2TOX_R_SQUARED 0.683, PBLUC_HILL_SLOPE 1.88, PBLUC_R_SQUARED 0.215, read-out: LUCIFERASE INFECTION ASSAY - IC50): 9.72 µM | IC90: > 10 µM

Oc1ccc(Br)c(/C=C/c2ccc3cccc(O)c3n2)c1
IC50 (HEPG2TOX_HILL_SLOPE 7.26, HEPG2TOX_R_SQUARED 0.426, read-out: LUCIFERASE INFECTION ASSAY - IC50): > 9.64 µM | IC90: > 9.64 µM

O=C(CNc1cccc(C(F)(F)F)c1)N/N=C/c1c2ccccc2c(Cl)c2ccccc12
IC50 (HEPG2TOX_HILL_SLOPE 7.3, HEPG2TOX_R_SQUARED 0.234, PBLUC_HILL_SLOPE 3.59, PBLUC_R_SQUARED 0.507, read-out: LUCIFERASE INFECTION ASSAY - IC50): 6.19 µM | IC90: > 10 µM

O=C(/C=C/c1cn(-c2ccccc2)nc1-c1ccncc1)c1cccc(N2CCCC2=O)c1
IC50 (HEPG2TOX_HILL_SLOPE 7.23, HEPG2TOX_R_SQUARED 0.576, PBLUC_HILL_SLOPE 3.48, PBLUC_R_SQUARED 0.189, read-out: LUCIFERASE INFECTION ASSAY - IC50): 9.57 µM | IC90: > 10 µM

Source: ChEMBL document CHEMBL4483862, “Open-source discovery of chemical leads for next-generation chemoprotective antimalarials” (2018)
